Experimental data from ChEMBL document CHEMBL4138229, “Recent discovery of indoleamine-2,3-dioxygenase 1 inhibitors targeting cancer immunotherapy” (Eur J Med Chem, 2018).
Each block holds one molecule with its values, some of them ahead of it.

Experiments:
[1] = molecular target: T1, Indoleamine 2,3-dioxygenase 1 (Homo sapiens, UniProt P14902); experiment: Inhibition of IDO1 (unknown origin) assessed as reduction in kynurenine production by spectraphotometric assay
[2] = molecular target: T1, Indoleamine 2,3-dioxygenase 1; experiment: Inhibition of IDO1 in human HeLa assessed as reduction in kynurenine production; type: cell-based
[3] = molecular target: T1, Indoleamine 2,3-dioxygenase 1; experiment: Inhibition of human IDO1 assessed as reduction in kynurenine production
[4] = molecular target: T2, Indoleamine 2,3-dioxygenase 2 (Homo sapiens, UniProt Q6ZQW0); experiment: Inhibition of human IDO2 using Trp as substrate after 90 mins by Bridge-IT tryptophan fluorescence assay
T2 sequence (Q6ZQW0 whole entry): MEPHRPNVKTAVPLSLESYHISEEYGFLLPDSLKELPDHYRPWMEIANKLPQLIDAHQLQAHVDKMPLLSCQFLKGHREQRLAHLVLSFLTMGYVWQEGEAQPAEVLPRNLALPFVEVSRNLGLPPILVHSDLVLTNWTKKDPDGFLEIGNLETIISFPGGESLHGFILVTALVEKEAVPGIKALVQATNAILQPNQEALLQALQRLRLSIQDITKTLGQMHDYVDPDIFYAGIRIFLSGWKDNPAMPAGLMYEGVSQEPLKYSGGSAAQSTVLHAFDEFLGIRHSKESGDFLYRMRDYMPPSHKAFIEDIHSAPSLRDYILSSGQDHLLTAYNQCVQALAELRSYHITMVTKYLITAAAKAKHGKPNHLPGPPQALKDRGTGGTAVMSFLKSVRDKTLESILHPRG

[5] = molecular target: T3, Tryptophan 2,3-dioxygenase (Homo sapiens, UniProt P48775); experiment: Inhibition of human TDO using Trp as substrate after 90 mins by Bridge-IT tryptophan fluorescence assay
T3 sequence (P48775 whole entry): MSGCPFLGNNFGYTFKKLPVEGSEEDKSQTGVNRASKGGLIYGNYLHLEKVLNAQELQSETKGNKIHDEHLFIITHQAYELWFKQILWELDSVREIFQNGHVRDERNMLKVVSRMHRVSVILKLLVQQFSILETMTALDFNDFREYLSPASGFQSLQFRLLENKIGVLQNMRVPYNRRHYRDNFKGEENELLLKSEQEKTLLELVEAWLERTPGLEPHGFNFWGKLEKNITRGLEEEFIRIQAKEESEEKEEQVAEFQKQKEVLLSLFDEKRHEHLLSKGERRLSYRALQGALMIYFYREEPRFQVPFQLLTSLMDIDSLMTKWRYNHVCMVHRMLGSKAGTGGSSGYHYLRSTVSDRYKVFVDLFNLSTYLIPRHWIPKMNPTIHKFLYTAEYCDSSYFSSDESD

[6] = molecular target: Indoleamine 2,3-dioxygenase 1 (Mus musculus, UniProt P28776); experiment: Inhibition of IDO1 in mouse P815 Clone 12 cells assessed as reduction in kynurenine production incubated for 16 to 18 hrs; type: cell-based
Indoleamine 2,3-dioxygenase 1 (Mus musculus, UniProt P28776), sequence (P28776 whole entry): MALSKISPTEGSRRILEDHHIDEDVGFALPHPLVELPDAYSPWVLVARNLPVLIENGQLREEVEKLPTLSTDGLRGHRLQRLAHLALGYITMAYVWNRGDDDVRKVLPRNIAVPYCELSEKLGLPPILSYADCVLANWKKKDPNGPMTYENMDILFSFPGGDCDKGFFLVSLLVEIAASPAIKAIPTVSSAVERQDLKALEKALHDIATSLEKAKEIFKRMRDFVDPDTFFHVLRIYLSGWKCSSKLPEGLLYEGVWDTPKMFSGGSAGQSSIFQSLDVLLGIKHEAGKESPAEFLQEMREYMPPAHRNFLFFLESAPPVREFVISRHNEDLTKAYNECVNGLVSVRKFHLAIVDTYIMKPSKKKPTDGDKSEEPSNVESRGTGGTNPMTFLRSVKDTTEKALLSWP

[7] = molecular target: T3, Tryptophan 2,3-dioxygenase; experiment: Inhibition of TDO (unknown origin)
[8] = molecular target: T3, Tryptophan 2,3-dioxygenase; experiment: Inhibition of human TDO expressed in T-REx-293 cells; type: cell-based
[9] = molecular target: T1, Indoleamine 2,3-dioxygenase 1; experiment: Inhibition of IDO1 (unknown origin) after 60 mins
[10] = molecular target: T1, Indoleamine 2,3-dioxygenase 1; experiment: Inhibition of IDO1 in human HeLa cells assessed as reduction in kynurenine production; type: cell-based

T1 sequence (P14902 whole entry): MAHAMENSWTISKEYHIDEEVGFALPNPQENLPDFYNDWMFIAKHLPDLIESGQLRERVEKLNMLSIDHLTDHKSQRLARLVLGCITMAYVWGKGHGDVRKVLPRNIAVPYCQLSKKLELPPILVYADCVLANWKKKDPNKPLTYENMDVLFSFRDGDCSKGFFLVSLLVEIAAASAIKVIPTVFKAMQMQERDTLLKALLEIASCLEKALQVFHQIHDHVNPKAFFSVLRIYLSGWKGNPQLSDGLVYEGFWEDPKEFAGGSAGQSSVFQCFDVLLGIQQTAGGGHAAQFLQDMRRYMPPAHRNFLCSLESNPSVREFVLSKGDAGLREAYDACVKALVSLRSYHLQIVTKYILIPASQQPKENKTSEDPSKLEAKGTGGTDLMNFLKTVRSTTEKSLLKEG

SMILES: O/N=C(/CCC1CCCCC1)Nc1cccc(Cl)c1
- IC50 [1]: < 1000 nM

SMILES: Cc1ccc(-c2csc3nnc(SCC(=O)Nc4ccc5c(c4)OCO5)n23)cc1
- IC50 [4]: > 250000 nM
- IC50 [5]: > 62500 nM

SMILES: O=C1CC(c2c[nH]c3ccc(F)cc23)C(=O)N1 (stereo unspecified) [PF-06840003]
- IC50 [6]: 94 nM
- IC50 [7]: > 50000 nM

SMILES: O[C@H](C[C@H]1c2c(F)cccc2-c2cncn21)[C@H]1CC[C@H](O)CC1 [NAVOXIMOD]
- IC50 [7]: 140 nM
- IC50 [8]: 1500 nM

Further lines, results first:

- IC50 [2]: 3 nM
- IC50 [3]: 18 nM
SMILES: NS(=O)(=O)NC1(CCNc2nonc2/C(=N/O)Nc2ccc(F)c(Br)c2)CC1

- IC50 [9]: 11 nM
- IC50 [10]: 1.8 nM
SMILES: CS(=O)(=NC#N)NCCNc1nonc1/C(=N/O)Nc1ccc(F)c(Br)c1 (stereo unspecified)
